Measurements reported in patent US20100323031A1, “Synergistic combination to enhance blood glucose and insulin metabolism” (GLYKON TECHNOLOGIES GROUP, LLC, priority 2009, published 2010).
Marks after values point to notes of the source that are not given here.

What was measured:
[1] = test system: streptozotocin (STZ)-induced diabetes; assay: Pilot animal streptozotocin-induced diabetes trial, blood glucose by glucometer; assay type: in vivo, male Wistar albino rats; details: STD Herbal 250 mg/kg
Description: The synergism of the formula is reflected in findings in an animal trial of induced diabetes treated with Metformin. To produce streptozotocin (STZ)-induced diabetes in experimental rats, male Wistar albino rats of 12 weeks age were allowed to fast 24 hrs prior to injection with freshly prepared STZ in citrate buffer […] (45 mg/kg, i.p). […] However, an additional arm of similarly-induced diabetic rats that were older and much sicker was added to test the herbal mixture prepared to produce the relative percentages of each ingredient as in Example 1 given above, here termed “STD Herbal.” After an overnight fast, the samples suspended in 5% gum acacia were fed by gastric intubations with a syringe. […] The blood glucose level was determined by using an electronic glucometer (Accu Check, Roche Diagnostic) and the results are tabulated in table 4. n=6 animals in each group. Parenthesis value indicate percentage reduction of blood sugar level; *P<0.01 compared with initial level of blood glucose (0 h) in the respective group. Data were analyzed by repeated measure ANOVA followed by Dunnett test.

Human - sedentary = details: 3 grams HCA as the free acid equivalent; cited from earlier work
Male Wistar rats = details: equivalent to 2,170 mg HCA free acid; cited from earlier work
[2] = test system: Human morbidly obese diabetics; details: published literature, U.S. Pat. No. 6,207,714; cited from earlier work
[3] = test system: Aged diabetic obese Zucker rat; details: human-equivalent dose, 6:1 rat to human multiplier; cited from earlier work

CN(C)C(=N)N=C(N)N [Metformin]
Blood glucose level, Initial (0 hr) ([1]; 0 hr, before treatment, overnight fast, Metformin 150 mg/kg by gastric intubation, n=6, in mg/dL (unit assumed)): 329.2 ± 5.25
percentage reduction of blood sugar level, +1 hr ([1]; +1 hr vs initial (0 hr), Metformin 150 mg/kg): (17.49) %
Blood glucose level, Treatment +1 hr ([1]; +1 hr, Metformin 150 mg/kg by gastric intubation, n=6, in mg/dL (unit assumed)): 271.6 ± 4.0
percentage reduction of blood sugar level, +2 hr ([1]; +2 hr vs initial (0 hr), Metformin 150 mg/kg): (34.87) %
Blood glucose level, Treatment +2 hr ([1]; +2 hr, Metformin 150 mg/kg by gastric intubation, n=6, in mg/dL (unit assumed)): 214.4 ± 3.17*
percentage reduction of blood sugar level, +3 hr ([1]; +3 hr vs initial (0 hr), Metformin 150 mg/kg): (46.38) %
Blood glucose level, Treatment +3 hr ([1]; +3 hr, Metformin 150 mg/kg by gastric intubation, n=6, in mg/dL (unit assumed)): 176 ± 6.7*
percentage reduction of blood sugar level, +4 hr ([1]; +4 hr vs initial (0 hr), Metformin 150 mg/kg): (53.52) %
Blood glucose level, Treatment +4 hr ([1]; +4 hr, Metformin 150 mg/kg by gastric intubation, n=6, in mg/dL (unit assumed)): 153 ± 3.31*

O=C([O-])C[C@@](O)(C(=O)[O-])[C@H](O)C(=O)[O-].O=C([O-])C[C@@](O)(C(=O)[O-])[C@H](O)C(=O)[O-].[Ca+2].[Ca+2].[Ca+2] [calcium salt, calcium salt of (−)-hydroxycitric acid]
efficacy in reducing blood glucose (Human - sedentary): ineffective

potassium salt of (−)-hydroxycitric acid
efficacy in reducing blood glucose at smaller dosage (Male Wistar rats): ineffective
lowest dose of HCA as free acid equivalent found efficacious in reducing blood glucose [2]: 3 grams

potassium-calcium salt of (−)-hydroxycitric acid
lowest stand-alone dose shown to be effective, as HCA free acid equivalent [3]: 3,276 mg
